Assay results reported in PubChem BioAssay (NCI).
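Abbreviation: GI50, concentration required for 50% inhibition of growth. The concentration for full growth arrest is given as TGI.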

What was measured:
Experiment in all cases: DTP human tumour cell line panel, 384-well format
SF-268 CNS = tested on: SF-268 CNS
IGROV1 ovarian = tested on: IGROV1 ovarian
CAKI-1 renal = tested on: CAKI-1 renal
SK-MEL-5 melanoma = tested on: SK-MEL-5 melanoma
CCRF-CEM leukemia = tested on: CCRF-CEM leukemia
SNB-19 CNS = tested on: SNB-19 CNS
MDA-MB-468 breast = tested on: MDA-MB-468 breast
UACC-62 melanoma = tested on: UACC-62 melanoma
BT-549 breast = tested on: BT-549 breast
HCC-2998 colon = tested on: HCC-2998 colon
LOX IMVI melanoma = tested on: LOX IMVI melanoma
SK-MEL-28 melanoma = tested on: SK-MEL-28 melanoma
NCI-H460 NSCLC = tested on: NCI-H460 NSCLC
PC-3 prostate = tested on: PC-3 prostate
NCI-H322M lung = tested on: NCI-H322M lung
NCI-H522 lung = tested on: NCI-H522 lung
EKVX NSCLC = tested on: EKVX NSCLC
ACHN renal = tested on: ACHN renal
UO-31 renal = tested on: UO-31 renal
SNB-75 CNS = tested on: SNB-75 CNS
MALME-3M melanoma = tested on: MALME-3M melanoma
A498 renal = tested on: A498 renal
SW-620 colon = tested on: SW-620 colon
DU-145 prostate = tested on: DU-145 prostate
SR leukemia = tested on: SR leukemia
MCF7 breast = tested on: MCF7 breast
HL-60(TB) leukemia = tested on: HL-60(TB) leukemia
SN12C renal = tested on: SN12C renal
OVCAR-4 ovarian = tested on: OVCAR-4 ovarian
NCI-H226 lung = tested on: NCI-H226 lung
HOP-62 NSCLC = tested on: HOP-62 NSCLC
SF-295 CNS = tested on: SF-295 CNS
786-0 renal = tested on: 786-0 renal
U251 glioblastoma = tested on: U251 glioblastoma
A549 NSCLC = tested on: A549 NSCLC
UACC-257 melanoma = tested on: UACC-257 melanoma
OVCAR-3 ovarian = tested on: OVCAR-3 ovarian
KM12 colon = tested on: KM12 colon
MDA-MB-435 melanoma = tested on: MDA-MB-435 melanoma
HS 578T breast = tested on: HS 578T breast
MDA-MB-231 breast = tested on: MDA-MB-231 breast
NCI-H23 lung = tested on: NCI-H23 lung
T-47D breast = tested on: T-47D breast
RXF 393 renal = tested on: RXF 393 renal
K-562 leukemia = tested on: K-562 leukemia
COLO 205 colon = tested on: COLO 205 colon
SF-539 CNS = tested on: SF-539 CNS
NCI/ADR-RES ovarian = tested on: NCI/ADR-RES ovarian
MOLT-4 leukemia = tested on: MOLT-4 leukemia
M14 melanoma = tested on: M14 melanoma
OVCAR-8 ovarian = tested on: OVCAR-8 ovarian
HCT-15 colon = tested on: HCT-15 colon
SK-OV-3 ovarian = tested on: SK-OV-3 ovarian
HT29 colon = tested on: HT29 colon
RPMI-8226 leukemia = tested on: RPMI-8226 leukemia
HOP-92 NSCLC = tested on: HOP-92 NSCLC
TK-10 renal = tested on: TK-10 renal
OVCAR-5 ovarian = tested on: OVCAR-5 ovarian

In the case of `CNC(=O)CN1CCC(Oc2cc3c(Nc4cccc(Cl)c4F)ncnc3cc2OC)CC1`, the GI50 (SF-268 CNS) is reported as 9.9 µM, the TGI (SF-268 CNS) is reported as 36.4 µM and the GI50 (IGROV1 ovarian) is reported as 0.068 µM. It also gave a TGI (IGROV1 ovarian) of 1.55 µM, a GI50 (CAKI-1 renal) of 0.915 µM and a TGI (CAKI-1 renal) of 13.5 µM. The GI50 (SK-MEL-5 melanoma) was 10.2 µM, the TGI (SK-MEL-5 melanoma) was 21.9 µM and the GI50 (CCRF-CEM leukemia) was 15.3 µM. For the same compound, the TGI (CCRF-CEM leukemia) was 29.9 µM, the GI50 (SNB-19 CNS) was 14.3 µM and the TGI (SNB-19 CNS) was 45.2 µM. The GI50 (MDA-MB-468 breast) was under 0.01 µM, the GI50 (UACC-62 melanoma) was 13.9 µM and the TGI (UACC-62 melanoma) was 27.1 µM. For the same compound, the GI50 (BT-549 breast) was 11.7 µM, the TGI (BT-549 breast) was 27.1 µM and the GI50 (HCC-2998 colon) was 14.9 µM. For the same compound, the TGI (HCC-2998 colon) was 28.4 µM, the GI50 (LOX IMVI melanoma) was 10.7 µM and the TGI (LOX IMVI melanoma) was 22.6 µM. The GI50 (SK-MEL-28 melanoma) was 13.9 µM, the TGI (SK-MEL-28 melanoma) was 27 µM and the GI50 (NCI-H460 NSCLC) was 16.3 µM. It also gave a TGI (NCI-H460 NSCLC) of 34.1 µM, a GI50 (PC-3 prostate) of 14.7 µM and a TGI (PC-3 prostate) of 35 µM. The GI50 (NCI-H322M lung) was under 0.01 µM, the TGI (NCI-H322M lung) was 1.89 µM and the GI50 (NCI-H522 lung) was 0.0493 µM. It also gave a TGI (NCI-H522 lung) of 11.6 µM, a GI50 (EKVX NSCLC) of 0.0357 µM and a TGI (EKVX NSCLC) of 4.33 µM. For the same compound, the GI50 (ACHN renal) was 0.0298 µM, the TGI (ACHN renal) was 10.7 µM and the GI50 (UO-31 renal) was 12.4 µM. The TGI (UO-31 renal) was over 100 µM, the GI50 (SNB-75 CNS) was 9.75 µM and the TGI (SNB-75 CNS) was 34.1 µM. The GI50 (MALME-3M melanoma) was 12.8 µM, the TGI (MALME-3M melanoma) was 26.7 µM and the GI50 (A498 renal) was 12.4 µM. It also gave a TGI (A498 renal) of 27.2 µM, a GI50 (SW-620 colon) of 13.9 µM and a TGI (SW-620 colon) of 27.4 µM. For the same compound, the GI50 (DU-145 prostate) was 3.88 µM, the TGI (DU-145 prostate) was 43.4 µM and the GI50 (SR leukemia) was 15.1 µM. The TGI (SR leukemia) was 29.3 µM, the GI50 (MCF7 breast) was 10.3 µM and the TGI (MCF7 breast) was 24.9 µM. It also gave a GI50 (HL-60(TB) leukemia) of 18.9 µM, a TGI (HL-60(TB) leukemia) of 33 µM and a GI50 (SN12C renal) of 0.426 µM. For the same compound, the TGI (SN12C renal) was 9.66 µM, the GI50 (OVCAR-4 ovarian) was 3.28 µM and the TGI (OVCAR-4 ovarian) was 24.3 µM. For the same compound, the GI50 (NCI-H226 lung) was 11.1 µM, the TGI (NCI-H226 lung) was 29.9 µM and the GI50 (HOP-62 NSCLC) was 8.39 µM. It also gave a TGI (HOP-62 NSCLC) of 27.5 µM, a GI50 (SF-295 CNS) of 14.8 µM and a TGI (SF-295 CNS) of 28.3 µM. The GI50 ([…]-0 renal) was 5.7 µM, the TGI (786-0 renal) was 24.6 µM and the GI50 (U251 glioblastoma) was 17.2 µM. It also gave a TGI (U251 glioblastoma) of 36.3 µM, a GI50 (A549 NSCLC) of 2.31 µM and a TGI (A549 NSCLC) of 17.7 µM. It also gave a GI50 (UACC-257 melanoma) of 14.6 µM, a TGI (UACC-257 melanoma) of 28.1 µM and a GI50 (OVCAR-3 ovarian) of 1.95 µM. It also gave a TGI (OVCAR-3 ovarian) of 14.8 µM, a GI50 (KM12 colon) of 18.7 µM and a TGI (KM12 colon) of 35.6 µM. The GI50 (MDA-MB-435 melanoma) was 26.6 µM, the TGI (MDA-MB-435 melanoma) was 83.5 µM and the GI50 (HS 578T breast) was 4.07 µM. The TGI (HS 578T breast) was 16.1 µM, the GI50 (MDA-MB-231 breast) was 4.2 µM and the TGI (MDA-MB-231 breast) was 18.1 µM. The GI50 (NCI-H23 lung) was 10.7 µM, the TGI (NCI-H23 lung) was 30.8 µM and the GI50 (T-47D breast) was 0.38 µM. It also gave a TGI (T-47D breast) of 6.28 µM, a GI50 (RXF 393 renal) of 10.1 µM and a TGI (RXF 393 renal) of 25.5 µM. It also gave a GI50 (K-562 leukemia) of 10.9 µM, a TGI (K-562 leukemia) of 23.3 µM and a GI50 (COLO 205 colon) of 15.3 µM. It also gave a TGI (COLO 205 colon) of 28.7 µM, a GI50 (SF-539 CNS) of 12.4 µM and a TGI (SF-539 CNS) of 25.5 µM. It also gave a GI50 (NCI/ADR-RES ovarian) of 12.9 µM, a TGI (NCI/ADR-RES ovarian) of 29.4 µM and a GI50 (MOLT-4 leukemia) of 14.1 µM. The TGI (MOLT-4 leukemia) was 27.2 µM, the GI50 (M14 melanoma) was 15.3 µM and the TGI (M14 melanoma) was 29.1 µM. For the same compound, the GI50 (OVCAR-8 ovarian) was 13.1 µM, the TGI (OVCAR-8 ovarian) was 43.2 µM and the GI50 (HCT-15 colon) was 10.8 µM. For the same compound, the TGI (HCT-15 colon) was 22.8 µM, the GI50 (SK-OV-3 ovarian) was 0.383 µM and the TGI (SK-OV-3 ovarian) was 11.3 µM. For the same compound, the GI50 (HT29 colon) was 11.3 µM, the TGI (HT29 colon) was 24.6 µM and the GI50 (RPMI-8226 leukemia) was 9.35 µM. It also gave a TGI (RPMI-8226 leukemia) of 21.5 µM, a GI50 (HOP-92 NSCLC) of 4.39 µM and a TGI (HOP-92 NSCLC) of 20.2 µM. For the same compound, the GI50 (TK-10 renal) was 0.0537 µM, the TGI (TK-10 renal) was 13 µM and the GI50 (OVCAR-5 ovarian) was 0.906 µM. It also gave a TGI (OVCAR-5 ovarian) of 10.9 µM.
